Laboratory results taken from ChEMBL document CHEMBL3046133, “Susceptibility of field populations of Spodoptera litura (Fabricius) (Lepidoptera: Noctuidae) in China to chlorantraniliprole and the activities of detoxification enzymes” (2012).

Columns and labels:
Assay type in all cases: functional
Spodoptera litura [1] = assay: Resistance factor, ratio of LC50 for second to fifth-instar larval stage of Spodoptera litura field strain SZ10 to LC50 for larval stage of Spodoptera litura laboratory strain XW-Sus
Spodoptera litura [2] = assay: Resistance factor, ratio of LC50 for third to fifth-instar larval stage of Spodoptera litura field strain HH09 to LC50 for larval stage of Spodoptera litura laboratory strain XW-Sus
Spodoptera litura [3] = assay: Insecticidal activity against third to fifth-instar larval stage of Spodoptera litura field strain HF08 assessed as mortality after 72 hr by diet incorporation bioassay
Spodoptera litura [4] = assay: Resistance factor, ratio of LC50 for third to fifth-instar larval stage of Spodoptera litura field strain HF10 to LC50 for larval stage of Spodoptera litura laboratory strain XW-Sus
Spodoptera litura [5] = assay: Resistance factor, ratio of LC50 for third to fifth-instar larval stage of Spodoptera litura field strain NN10 to LC50 for larval stage of Spodoptera litura laboratory strain XW-Sus
Spodoptera litura [6] = assay: Resistance factor, ratio of LC50 for second to fifth-instar larval stage of Spodoptera litura field strain DG10 to LC50 for larval stage of Spodoptera litura laboratory strain XW-Sus
Spodoptera litura [7] = assay: Insecticidal activity against third to fifth-instar larval stage of Spodoptera litura field strain HF10 assessed as mortality after 72 hr by diet incorporation bioassay
Spodoptera litura [8] = assay: Resistance factor, ratio of LC50 for third to fifth-instar larval stage of Spodoptera litura field strain HF08 to LC50 for larval stage of Spodoptera litura laboratory strain XW-Sus
Spodoptera litura [9] = assay: Insecticidal activity against third to fifth-instar larval stage of Spodoptera litura field strain HH09 assessed as mortality after 72 hr by diet incorporation bioassay
Spodoptera litura [10] = assay: Insecticidal activity against third to fifth-instar larval stage of Spodoptera litura field strain NJ09 assessed as mortality after 72 hr by diet incorporation bioassay
Spodoptera litura [11] = assay: Resistance factor, ratio of LC50 for third to fifth-instar larval stage of Spodoptera litura field strain HX09 to LC50 for larval stage of Spodoptera litura laboratory strain XW-Sus
Spodoptera litura [12] = assay: Insecticidal activity against larval stage of Spodoptera litura laboratory strain XW-Sus assessed as mortality after 72 hr by diet incorporation bioassay
Spodoptera litura [13] = assay: Resistance factor, ratio of LC50 for second to fifth-instar larval stage of Spodoptera litura field strain ZZ10 to LC50 for larval stage of Spodoptera litura laboratory strain XW-Sus
Spodoptera litura [14] = assay: Insecticidal activity against second to fifth-instar larval stage of Spodoptera litura field strain DG10 assessed as mortality after 72 hr by diet incorporation bioassay
Spodoptera litura [15] = assay: Resistance factor, ratio of LC50 for second to fifth-instar larval stage of Spodoptera litura field strain HZ10 to LC50 for larval stage of Spodoptera litura laboratory strain XW-Sus
Spodoptera litura [16] = assay: Resistance factor, ratio of LC50 for third to fifth-instar larval stage of Spodoptera litura field strain NJ10 to LC50 for larval stage of Spodoptera litura laboratory strain XW-Sus
Spodoptera litura [17] = assay: Resistance factor, ratio of LC50 for third to fifth-instar larval stage of Spodoptera litura field strain SH10 to LC50 for larval stage of Spodoptera litura laboratory strain XW-Sus
Spodoptera litura [18] = assay: Insecticidal activity against second to fifth-instar larval stage of Spodoptera litura field strain SZ10 assessed as mortality after 72 hr by diet incorporation bioassay
Spodoptera litura [19] = assay: Resistance factor, ratio of LC50 for third to fifth-instar larval stage of Spodoptera litura field strain NJ09 to LC50 for larval stage of Spodoptera litura laboratory strain XW-Sus
Spodoptera litura [20] = assay: Insecticidal activity against third to fifth-instar larval stage of Spodoptera litura field strain HX09 assessed as mortality after 72 hr by diet incorporation bioassay
Spodoptera litura [21] = assay: Insecticidal activity against second to fifth-instar larval stage of Spodoptera litura field strain HZ10 assessed as mortality after 72 hr by diet incorporation bioassay
Spodoptera litura [22] = assay: Insecticidal activity against third to fifth-instar larval stage of Spodoptera litura field strain NN10 assessed as mortality after 72 hr by diet incorporation bioassay
Spodoptera litura [23] = assay: Insecticidal activity against second to fifth-instar larval stage of Spodoptera litura field strain ZZ10 assessed as mortality after 72 hr by diet incorporation bioassay
Spodoptera litura [24] = assay: Insecticidal activity against third to fifth-instar larval stage of Spodoptera litura field strain SH10 assessed as mortality after 72 hr by diet incorporation bioassay
Spodoptera litura [25] = assay: Insecticidal activity against third to fifth-instar larval stage of Spodoptera litura field strain NJ10 assessed as mortality after 72 hr by diet incorporation bioassay

In the case of `CNC(=O)c1cc(Cl)cc(C)c1NC(=O)c1cc(Br)nn1-c1ncccc1Cl` [CHLORANTRANILIPROLE], the RatioLC50 (Spodoptera litura [1]) was 24.4, the RatioLC50 (Spodoptera litura [2]) was 9.4 and the LC50 (Spodoptera litura [3]) was 71.58 ugAi/L. The LC90 (Spodoptera litura [3]) was 386.57 ugAi/L, the RatioLC50 (Spodoptera litura [4]) was 17.9 and the RatioLC50 (Spodoptera litura [5]) was 7.8. It also gave a RatioLC50 (Spodoptera litura [6]) of 23.3, an LC50 (Spodoptera litura [7]) of 75.51 ugAi/L and an LC90 (Spodoptera litura [7]) of 262.61 ugAi/L. For the same compound, the RatioLC50 (Spodoptera litura [8]) was 16.9, the LC50 (Spodoptera litura [9]) was 39.54 ugAi/L and the LC90 (Spodoptera litura [9]) was 132.55 ugAi/L. For the same compound, the LC50 (Spodoptera litura [10]) was 28.41 ugAi/L, the LC90 (Spodoptera litura [10]) was 108.24 ugAi/L and the RatioLC50 (Spodoptera litura [11]) was 23.8. The LC50 (Spodoptera litura [12]) was 4.2 ugAi/L, the LC90 (Spodoptera litura [12]) was 17.82 ugAi/L and the RatioLC50 (Spodoptera litura [13]) was 18.9. It also gave an LC50 (Spodoptera litura [14]) of 98.81 ugAi/L, an LC90 (Spodoptera litura [14]) of 358.16 ugAi/L and a RatioLC50 (Spodoptera litura [15]) of 19.2. The RatioLC50 (Spodoptera litura [16]) was 9, the RatioLC50 (Spodoptera litura [17]) was 11.2 and the LC50 (Spodoptera litura [18]) was 102.48 ugAi/L. It also gave an LC90 (Spodoptera litura [18]) of 354.52 ugAi/L, a RatioLC50 (Spodoptera litura [19]) of 6.8 and an LC50 (Spodoptera litura [20]) of 100.3 ugAi/L. It also gave an LC90 (Spodoptera litura [20]) of 431.76 ugAi/L, an LC50 (Spodoptera litura [21]) of 80.41 ugAi/L and an LC90 (Spodoptera litura [21]) of 296.76 ugAi/L. For the same compound, the LC50 (Spodoptera litura [22]) was 32.85 ugAi/L, the LC90 (Spodoptera litura [22]) was 81.75 ugAi/L and the LC50 (Spodoptera litura [23]) was 78.89 ugAi/L. The LC90 (Spodoptera litura [23]) was 269.74 ugAi/L, the LC50 (Spodoptera litura [24]) was 47.17 ugAi/L and the LC90 (Spodoptera litura [24]) was 133.09 ugAi/L. It also gave an LC50 (Spodoptera litura [25]) of 37.78 ugAi/L and an LC90 (Spodoptera litura [25]) of 156.29 ugAi/L.
